Values after ≈ are worked out from the molar mass of the structure shown. Where two headings read alike, the source gives them in different places. One block for each compound: values may come before it.
How the values were obtained:
[1] = target: T1, human TRPA1 (hTRPA1) (Homo sapiens, UniProt O75762); experiment: Inhibition of human TRPA1, whole-cell patch clamp; format: cell-based
T1 construct: expressed in transfected cells
Procedure: Data for TRPA1 inhibition was obtained by this method for the indicated compounds of Formula (I), with the relevant data included in Table 14 below. All currents were recorded in whole-cell configuration using EPC-9 and EPC-10 amplifiers and Patchmaster software (HEKA). […] The standard pipette solution consisted of 140 mM CsAsp, 10 mM EGTA, 10 mM HEPES, […], 1.91 mM CaCl2, and up to 0.3 mM Na2GTP, with pH adjusted to 7.2 with CsOH. In addition, a solution containing 145 mM CsCl, 10 mM HEPES, 10 mM EGTA, and up to 0.3 mM Na2GTP and 1 mM MgCl2 (pH 7.2 adjusted with CsOH) can be used. The standard bath solution contained 150 mM NaCl, 10 mM HEPES, 10 mM glucose, 4.5 mM KCl, 1 mM EGTA, 3 mM MgCl2, with pH adjusted to 7.4 with NaOH. In some instances, 2 mM CaCl2 was added in place of EGTA and the concentration of MgCl2 was reduced to 1 mM.
Data were collected either by continuous recordings at −60 mV or by applying voltage ramps from a holding potential of 0 mV every 4 s. Continuous recordings were collected at 400 Hz and digitally filtered off-line at 10 Hz for presentation. Voltage ramps were applied from −100 mV to 100 mV over the course of 400 ms, and data were collected at 10 kHz and filtered at […]. Inward and outward currents were analyzed from the ramps at −80 and 80 mV, respectively. Liquid junction potential correction was not used.
Solutions were switched using a gravity-fed continuous focal perfusion system. To achieve rapid temperature changes, two temperature control, and perfusion systems were employed simultaneously. For temperatures greater than or equal to 22° C., a Warner Instruments bipolar temperature controller (TC-344B) and inline heater (SHM-8) were used. […] Temperatures were confirmed using a thermistor (Warner Instruments, TA-29), with temperatures at the recorded cell estimated to be within +/−2° C. of those reported.
The antagonist effects of compounds of Formula (I) against human TRPA1 (“hTRPA1”) in a whole cell patch configuration were evaluated using the in vitro assay protocol described above.

[2] = system: formalin model in the rat; experiment: Formalin-induced pain test; format: in vivo
Procedure: Compound 2 was tested in the formalin-induced pain test reported by Dubuisson et al., Pain (1977) December; 4(2):161-74. Dubuisson et al describe a method for assessing pain and analgesia in rats and cats. Briefly, dilute formalin (50 μL of 3% formalin) is injected into the plantar surface of the hind paw of a rat. […] The initial phase (Phase I: 0-5 min) is thought to have a significant component that is dependent upon direct activation of afferent fibers by formalin and functional TRPA1 (McNamara et al., 2007). The individual responsible for counting the pain behaviors in a particular study is blinded to the treatment groups.
Investigators studied oral administration of Compound 2 at 1, 3 and 10 mg/kg on pain behaviors in the formalin model in the rat. Compound 2 was prepared as solutions in 4% DMSO, 10% Solutol HS15, 86% WFI. Animals were dosed orally with Vehicle (4% DMSO, 10% Solutol, 86% WFI), or Compound 2 at 1, 3 or 10 mg/kg one hour prior to intraplantar formalin. […] (n=8 per group) (*=p<0.05, **=p<0.01, *** p<0.001: 1-tailed T-test)
A reduction in the duration of pain behaviors was also observed with Compound 4 from 0-5 minutes post-formalin administration. Using the methods described above for the formalin assay, Compound 4 was formulated as a solution in 4% DMSO; 5% Tween-80; 20% Cremophor EL; and 71% WFI and administered by oral gavage to rats.
Using the methods described above for the formalin assay, Compound 4 was formulated as a suspension in 0.5% methylcellulose and administered by oral gavage to rats.
The persistence of the response was also studied. Compound 2 was prepared as a solution in 4% DMSO, 10% Solutol HS15, and 86% WFI. Rats were treated with 10 mg/kg of oral doses of Compound 2 or with the vehicle (PO).

[3] = Solubility in Normal Ringer Solution; format: physicochemical; conditions: aqueous buffer, kinetic from dmso stock, pH 7.4, room temperature
Procedure: Compounds of the invention were also tested for solubility in Normal Ringer Solution. […] Following vortex and incubation for 40 minutes at room temperature, solutions were filtered, quenched with acetonitrile, and analyzed by liquid chromatography. Solubility limits were determined by comparison to a standard curve. […] Solubility is reported as “greater than” if the observed increase between the last 2 dilutions tested is greater than 2-fold.

[4] = Metabolic stability in liver microsomes; format: in vitro ADME, human; conditions: 1 μM test compound; for half-life at 1 μM: human, liver microsomes, 37° C.
Procedure: (§1) Metabolic stability of the compounds of Formula (I) was determined by standard liver microsome assays. Briefly, metabolic stability was tested by adding the compound to be tested dissolved in DMSO to human, dog, or rat liver microsomes. Assays were run with a starting concentration of 1 μM test compound. The reaction was initiated by addition of nicotinamide adenine dinucleotide phosphate[…] (NADPH) regeneration components at 37° C., at which time an aliquot was immediately quenched in an ice-cold acetonitrile/methanol/water solution. Reaction mixture was incubated at 37° C. on a shaker, and additional aliquots were taken at 7, 15, 30 and 60 minutes. Following quench and centrifugation, samples were analyzed on HPLC/MS/MS.

[5] = Metabolic stability in liver microsomes; format: in vitro ADME
Procedure: as §1

[6] = antagonist effect, whole cell patch configuration, read-out: hTRPA1
[7] = dog liver microsomes, female, read-out: Female Half-Life
[8] = rat liver microsomes, both sexes, read-out: Half-Life Both sexes
[9] = rat liver microsomes, male, read-out: Male Half-Life
[10] = 10 mg/kg PO, 1 Hr pre-treatment
[11] = 10 mg/kg PO, 2 Hr pre-treatment
[12] = 10 mg/kg PO, 4 Hr pre-treatment
[13] = 10 mg/kg PO, 6 Hr pre-treatment
[14] = 10 mg/kg PO, 15 Min pre-treatment
[15] = 10 mg/kg PO, 24 Hr pre-treatment
[16] = 10 mg/kg PO, 30 Min pre-treatment
[17] = 1 mpk PO, one hour prior to formalin
[18] = 3 mpk PO, one hour prior to formalin
[19] = 10 mpk PO, one hour prior to formalin
[20] = 1 mpk PO, solution in DMSO/Tween-80/Cremophor EL/WFI
[21] = 1 mpk PO, suspension in 0.5% methylcellulose

T1 sequence (O75762 whole entry): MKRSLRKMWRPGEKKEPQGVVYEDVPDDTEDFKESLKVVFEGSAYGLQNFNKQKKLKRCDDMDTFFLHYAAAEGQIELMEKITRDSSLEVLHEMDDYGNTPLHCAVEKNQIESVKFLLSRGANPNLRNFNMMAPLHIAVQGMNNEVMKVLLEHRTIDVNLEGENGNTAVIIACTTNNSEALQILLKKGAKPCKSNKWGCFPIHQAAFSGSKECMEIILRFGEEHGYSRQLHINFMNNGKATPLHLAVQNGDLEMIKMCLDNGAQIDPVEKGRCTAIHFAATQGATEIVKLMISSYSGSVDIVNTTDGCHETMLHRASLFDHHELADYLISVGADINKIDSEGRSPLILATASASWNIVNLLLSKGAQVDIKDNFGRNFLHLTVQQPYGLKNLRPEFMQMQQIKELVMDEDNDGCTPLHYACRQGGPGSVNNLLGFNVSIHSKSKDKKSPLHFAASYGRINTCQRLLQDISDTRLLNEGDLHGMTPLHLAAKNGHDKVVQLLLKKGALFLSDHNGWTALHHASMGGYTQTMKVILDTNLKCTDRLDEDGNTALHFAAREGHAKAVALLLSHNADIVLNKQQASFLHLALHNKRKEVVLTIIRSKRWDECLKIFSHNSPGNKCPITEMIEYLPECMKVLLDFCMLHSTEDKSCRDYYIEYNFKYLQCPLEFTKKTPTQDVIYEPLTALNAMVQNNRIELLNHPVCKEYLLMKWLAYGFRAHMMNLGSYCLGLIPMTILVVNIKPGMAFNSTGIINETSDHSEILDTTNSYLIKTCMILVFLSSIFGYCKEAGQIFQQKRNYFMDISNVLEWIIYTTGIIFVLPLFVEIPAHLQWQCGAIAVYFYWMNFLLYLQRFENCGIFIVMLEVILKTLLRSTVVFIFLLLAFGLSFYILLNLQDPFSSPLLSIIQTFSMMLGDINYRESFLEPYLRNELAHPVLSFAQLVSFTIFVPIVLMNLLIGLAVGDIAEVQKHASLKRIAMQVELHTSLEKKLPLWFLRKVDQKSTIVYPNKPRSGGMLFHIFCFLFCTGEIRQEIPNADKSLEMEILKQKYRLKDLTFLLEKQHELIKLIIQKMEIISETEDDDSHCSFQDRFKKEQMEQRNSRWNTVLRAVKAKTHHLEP

IC50 [1, 6]: 5.15 nM | solubility at 40 min [3]: > 14.3 µM | Human Liver Microsomes Hepatic Clearance [4]: 16 mL/min/kg | half-life at 1 μM [4]: 9 min | Female Hepatic Clearance ([5]; dog liver microsomes, female): 18 mL/min/kg | half-life at 1 μM [5, 7]: 18 min | Male Hepatic Clearance ([5]; dog liver microsomes, male): 22 mL/min/kg | half-life at 1 μM ([5]; dog liver microsomes, male, read-out: Male Half-Life): 10 min | half-life at 1 μM [5, 8]: 39.2 min | Female Hepatic Clearance ([5]; rat liver microsomes, female): 20 mL/min/kg | half-life at 1 μM ([5]; rat liver microsomes, female, read-out: Female Half-Life): 46 min | Male Hepatic Clearance ([5]; rat liver microsomes, male): 29 mL/min/kg | half-life at 1 μM [5, 9]: 22 min
Structure (SMILES): C[C@@H](C(=O)Nc1ccnc(-c2cnc(N3CCCC3(C)C)nc2)n1)n1cnc2c1c(=O)n(C)c(=O)n2C [Compound 1, (S)-2-(1,3-dimethyl-2,6-dioxo-2,3-dihydro-1H-purin-7(6H)-yl)-N-(2′-(2,2-dimethylpyrrolidin-1-yl)-[2,5′-bipyrimidin]-4-yl)propanamide]
Duration 0-2 min ([2]; 1 mg/kg IV): 35.50 s | Duration 0-5 min ([2]; 1 mg/kg IV): 153.25 s | Duration 0-2 min ([2]; 3 mg/kg IV): 6.25 s | Duration 0-5 min ([2]; 3 mg/kg IV): 111.25 s

IC50 [1, 6]: 6.87 nM | IC50 ([1]; hTRPA1, 10 μM AITC, read-out: IC50 Inward current): 6.9 ± 3.1 nM | solubility at 40 min [3]: ~32.4 µM (≈ 17.6 µg/mL) | Human Liver Microsomes Hepatic Clearance [4]: 8 mL/min/kg | half-life at 1 μM [4]: 43 min | half-life at 1 μM ([5]; dog liver microsomes, both sexes, read-out: Half-Life both sexes): 22.9 min | half-life at 1 μM [5, 7]: 22.9 min | half-life at 1 μM [5, 8]: > 60 min | Male Hepatic Clearance ([5]; rat liver microsomes, male): 2 mL/min/kg | half-life at 1 μM [5, 9]: 787 min
Structure (SMILES): C[C@@H](C(=O)Nc1ccnc(-c2cnc(N3CCC[C@H]3C(F)(F)F)nc2)n1)n1cnc2c1c(=O)n(C)c(=O)n2C [Compound 2, (S)-2-(1,3-dimethyl-2,6-dioxo-2,3-dihydro-1H-purin-7(6H)-yl)-N-(2′-((S)-2-(trifluoromethyl)pyrrolidin-1-yl)-[2,5′-bipyrimidin]-4-yl)propanamide]
reduction of pain behaviors from 0-5 minutes ([2]; 1 mg/kg PO, vs vehicle, did not reach statistical significance): ~14% | decrease in the duration of pain behaviors from 0-2 minutes ([2]; 1 mg/kg PO, vs vehicle, not statistically significant): ~14% | decrease in formalin-induced pain behaviors from 0-2 minutes ([2]; 3 mg/kg PO, vs vehicle): ~72% | reduction of duration of pain behaviors from 0-5 minutes ([2]; 3 mg/kg PO, vs vehicle): ~46% | Duration 0-2 min [2, 10]: 14.50 s | Duration 0-5 min [2, 10]: 146.14 s | Duration 0-2 min [2, 11]: 12.00 s | Duration 0-5 min [2, 11]: 118.10 s | Duration 0-2 min [2, 12]: 19.00 s | Duration 0-5 min [2, 12]: 135.84 s | Duration 0-2 min [2, 13]: 22.75 s | Duration 0-5 min [2, 13]: 156.61 s | Duration 0-2 min [2, 14]: 82.50 s | Duration 0-5 min [2, 14]: 185.43 s | Duration 0-2 min [2, 15]: 96.63 s | Duration 0-5 min [2, 15]: 197.15 s | Duration 0-2 min [2, 16]: 62.50 s | Duration 0-5 min [2, 16]: 181.40 s | decrease in the duration of formalin-induced pain behaviors 0-2 minutes ([2]; 10 mg/kg PO, 15 minute to 6 hour pre-treatment, vs vehicle): 30-87% | duration of formalin-mediated pain behaviors ([2]; 10 mg/kg PO, 30 minutes to 6 hours prior to formalin injection): significantly decreased the duration of formalin-mediated pain behaviors | decrease in formalin-induced pain behaviors from 0-2 minutes ([2]; 10 mg/kg PO, vs vehicle): ~89% | reduction of duration of pain behaviors from 0-5 minutes ([2]; 10 mg/kg PO, vs vehicle): ~60% | Duration 0-2 min [2, 17]: 73.00 s | Duration 0-5 min [2, 17]: 157.38 s | Duration 0-2 min [2, 18]: 23.25 s | Duration 0-5 min [2, 18]: 99.00 s | Duration 0-2 min [2, 19]: 9.25 s | Duration 0-5 min [2, 19]: 73.50 s

IC50 [1, 6]: 11.3 nM | solubility at 40 min [3]: > 31.3 µM | half-life at 1 μM [4]: 19.8 min | half-life at 1 μM [5, 8]: 72.6 min
Structure (SMILES): C[C@@H](C(=O)Nc1ccnc(-c2cnc(N3CCC[C@@H]3C(F)(F)F)nc2)n1)n1cnc2c1c(=O)n(C)c(=O)n2C [Compound 4, (S)-2-(1,3-dimethyl-2,6-dioxo-2,3-dihydro-1H-purin-7(6H)-yl)-N-(2′-((R)-2-(trifluoromethyl)pyrrolidin-1-yl)-[2,5′-bipyrimidin]-4-yl)propanamide]
Duration 0-2 min [2, 20]: 76.13 s | Duration 0-5 min [2, 20]: 197.88 s | Duration 0-2 min [2, 21]: 80.38 s | Duration 0-5 min [2, 21]: 186.25 s | Duration 0-2 min ([2]; 3 mpk PO, solution): 45.25 s | Duration 0-5 min ([2]; 3 mpk PO, solution): 175.88 s | Duration 0-2 min ([2]; 3 mpk PO, suspension): 51.13 s | Duration 0-5 min ([2]; 3 mpk PO, suspension): 163.25 s | Duration 0-2 min ([2]; 10 mpk PO, solution): 47.13 s | Duration 0-5 min ([2]; 10 mpk PO, solution): 191.00 s | Duration 0-2 min ([2]; 10 mpk PO, suspension): 38.13 s | Duration 0-5 min ([2]; 10 mpk PO, suspension): 144.25 s

From patent publication US20170050966A1, “INHIBITING THE TRANSIENT RECEPTOR POTENTIAL A1 ION CHANNEL” (HYDRA BIOSCIENCES, INC., priority 2014, published 2017)
